From the NIST ThermoML archive (doi:10.1016/j.jct.2018.05.008)

Assay: mn = molality of the nth substance listed, in mol/kg
Details: 101.3 kPa, Liquid, Vibrating tube method

CCCCn1cc[n+](C)c1.[Br-] [1-butyl-3-methylimidazolium bromide] + O
mass density [kg/m3]
Details | 288.15 K | 298.15 K | 308.15 K | 310.15 K | 318.15 K
m1 = 0.0493 | 1001.53 | 999.41 | 996.35 | 995.63 | 992.48
m1 = 0.0509 | 1001.61 | 999.52 | 996.47 | 995.75 | 992.61
m1 = 0.0513 | 1001.57 | 999.46 | 996.38 | 995.68 | 992.51
m1 = 0.0518 | 1001.67 | 999.57 | 996.52 | 995.81 | 992.66
m1 = 0.0557 | 1001.85 | 999.75 | 996.69 | 995.98 | 992.83
m1 = 0.1002 | 1003.91 | 1001.72 | 998.61 | 997.87 | 994.63
m1 = 0.1004 | 1004.02 | 1001.86 | 998.75 | 998.04 | 994.69
m1 = 0.101 | 1004.05 | 1001.87 | 998.72 | 998 | 994.83
m1 = 0.1073 | 1004.38 | 1002.22 | 999.1 | 998.38 | 995.11
m1 = 0.1133 | 1005.08 | 1002.9 | 999.78 | 999.06 | 995.72
m1 = 0.1957 | 1008.66 | 1006.35 | 1003.13 | 1002.38 | 999.01
m1 = 0.2009 | 1008.82 | 1006.51 | 1003.27 | 1002.54 | 999.26
m1 = 0.201 | 1008.91 | 1006.62 | 1003.37 | 1002.65 | 999.35
m1 = 0.2016 | 1009.08 | 1006.79 | 1003.57 | 1002.83 | 999.57
m1 = 0.2345 | 1010.39 | 1008.06 | 1004.81 | 1004.05 | 1000.65
m1 = 0.2633 | 1012.6 | 1010.24 | 1006.95 | 1006.2 | 1002.9
m1 = 0.2918 | 1013.08 | 1010.67 | 1007.36 | 1006.6 | 1003.16
m1 = 0.2964 | 1013.29 | 1010.87 | 1007.54 | 1006.76 | 1003.29
m1 = 0.2981 | 1013.19 | 1010.75 | 1007.42 | 1006.65 | 1003.33
m1 = 0.3007 | 1013.75 | 1011.3 | 1007.96 | 1007.19 | 1003.81

NCC(=O)O [2-aminoacetic acid] + O
mass density [kg/m3]
Details | m1 = 0.0602 | m1 = 0.1201 | m1 = 0.1992 | m1 = 0.3016 | m1 = 0.3854 | m1 = 0.4462 | m1 = 0.5271 | m1 = 0.6444 | m1 = 0.7856
288.15 K | 1001.04 | 1002.97 | 1005.49 | 1008.71 | 1011.3 | 1013.17 | 1015.62 | 1019.16 | 1023.32
298.15 K | 998.98 | 1000.87 | 1003.34 | 1006.49 | 1009.02 | 1010.84 | 1013.23 | 1016.66 | 1020.69
308.15 K | 995.95 | 997.8 | 1000.22 | 1003.32 | 1005.82 | 1007.61 | 1009.97 | 1013.36 | 1017.38
310.15 K | 995.25 | 997.1 | 999.51 | 1002.59 | 1005.07 | 1006.86 | 1009.22 | 1012.6 | 1016.6
318.15 K | 992.13 | 993.97 | – | 999.45 | 1001.91 | 1003.69 | 1006.03 | 1009.41 | 1013.42

CCC(N)C(=O)O (stereo not drawn) [(.+-.)-α-aminobutyric acid] + O
mass density [kg/m3]
Details | m1 = 0.2006 | m1 = 0.4945 | m1 = 0.5944 | m1 = 0.6791 | m1 = 0.7812 | m1 = 0.8868 | m1 = 0.9902
288.15 K | 1004.67 | 1012.46 | 1015 | 1017.13 | 1019.67 | 1022.24 | 1024.71
298.15 K | 1002.5 | 1010.14 | 1012.62 | 1014.71 | 1017.19 | 1019.71 | 1022.13
308.15 K | 999.41 | 1006.94 | 1009.38 | 1011.44 | 1013.88 | 1016.36 | 1018.74
310.15 K | 998.69 | 1006.2 | 1008.64 | 1010.69 | 1013.12 | 1015.6 | 1017.97
318.15 K | 995.55 | 1003.01 | 1005.46 | 1007.5 | 1009.85 | 1012.32 | 1014.68

C[C@H](N)C(=O)O [(S)-2-aminopropanoic acid] + O
mass density [kg/m3]
Details | m1 = 0.0522 | m1 = 0.1036 | m1 = 0.2032 | m1 = 0.3122 | m1 = 0.3941 | m1 = 0.4964 | m1 = 0.5873 | m1 = 0.6752 | m1 = 0.791
288.15 K | 1000.63 | 1002.12 | 1004.98 | 1008.03 | 1010.29 | 1013.01 | 1015.47 | 1017.77 | 1020.75
298.15 K | 998.58 | 1000.04 | 1002.84 | 1005.84 | 1008.05 | 1010.78 | 1013.15 | 1015.38 | 1018.3
308.15 K | 995.56 | 997 | 999.75 | 1002.71 | 1004.9 | 1007.59 | 1009.93 | 1012.15 | 1015.04
310.15 K | 994.85 | 996.28 | 999.03 | 1001.99 | 1004.18 | 1006.87 | 1009.2 | 1011.4 | 1014.3
318.15 K | 991.74 | 993.17 | 995.9 | 998.84 | 1001 | 1003.68 | 1006.01 | 1008.22 | 1011.1

N[C@@H](CO)C(=O)O [L-serine] + O
mass density [kg/m3]
Details | m1 = 0.0489 | m1 = 0.104 | m1 = 0.2 | m1 = 0.292 | m1 = 0.3911 | m1 = 0.471 | m1 = 0.5884 | m1 = 0.6788 | m1 = 0.7168
288.15 K | 1001.29 | 1003.76 | 1008.02 | 1012.04 | 1016.28 | 1019.63 | 1024.47 | 1028.16 | 1029.64
298.15 K | 999.22 | 1001.64 | 1005.81 | 1009.76 | 1013.93 | 1017.22 | 1021.98 | 1025.59 | 1027.05
308.15 K | 996.21 | 998.6 | 1002.72 | 1006.6 | 1010.72 | 1013.95 | 1018.62 | 1022.22 | 1023.66
310.15 K | 995.5 | 997.89 | 1002 | 1005.88 | 1009.98 | 1013.21 | 1017.85 | 1021.44 | 1022.88
318.15 K | 992.38 | 994.75 | 998.83 | 1002.65 | 1006.72 | 1009.93 | 1014.6 | 1018.12 | 1019.57

C[C@@H](O)[C@H](N)C(=O)O [L-threonine] + O
mass density [kg/m3]
Details | m1 = 0.1926 | m1 = 0.2858 | m1 = 0.3869 | m1 = 0.4789 | m1 = 0.5872 | m1 = 0.6687
288.15 K | 1007.25 | 1011.08 | 1015.18 | 1018.78 | 1022.93 | 1026.01
298.15 K | 1005.04 | 1008.79 | 1012.82 | 1016.36 | 1020.45 | 1023.46
308.15 K | 1001.91 | 1005.62 | 1009.58 | 1013.09 | 1017.13 | 1020.1
310.15 K | 1001.19 | 1004.89 | 1008.86 | 1012.35 | 1016.39 | 1019.34
318.15 K | 998.01 | 1001.68 | 1005.6 | 1009.09 | 1013.09 | 1016.02

O [water] + CCC(N)C(=O)O
Details | mass density [kg/m3]
310.15 K, m2 = 0 | 993.32

O [water] + CCCCn1cc[n+](C)c1.[Br-]
m2 = 0
Details | mass density [kg/m3]
308.15 K | 994.07
310.15 K | 993.37
318.15 K | 990.26

O [water] + C[C@@H](O)[C@H](N)C(=O)O
Details | mass density [kg/m3]
310.15 K, m2 = 0 | 993.32

O [water] + C[C@H](N)C(=O)O
m2 = 0
Details | mass density [kg/m3]
308.15 K | 994.08
310.15 K | 993.38
318.15 K | 990.27

O [water] + NCC(=O)O
m2 = 0
Details | mass density [kg/m3]
308.15 K | 994.07
310.15 K | 993.37
318.15 K | 990.26

O [water] + N[C@@H](CO)C(=O)O
m2 = 0
Details | mass density [kg/m3]
308.15 K | 994.06
310.15 K | 993.36
